Key:
cynomolgus PD-L1 = target: T1, cynomolgus PD-L1 (Macaca fascicularis, UniProt G7PSE7); assay: in vitro cynomolgus PD-L1/PD-1 interaction inhibition assay (S5 Fig); assay type: binding
T1 construct: with PD-1 (displaced in the assay)

PD-L1 = target: T2, PD-L1 (Homo sapiens, UniProt Q9NZQ7); assay: plate-based (ELISA-type) PD-1/PD-L1 binding inhibition assay with recombinant proteins; also CD80/PD-L1 inhibition and PathHunter PD-L1 dimerization in U2OS cells
T2 construct: gene CD274; with PD-1 (displaced in the assay); PD-L1 homodimer induced
T2 sequence (Q9NZQ7 19-290): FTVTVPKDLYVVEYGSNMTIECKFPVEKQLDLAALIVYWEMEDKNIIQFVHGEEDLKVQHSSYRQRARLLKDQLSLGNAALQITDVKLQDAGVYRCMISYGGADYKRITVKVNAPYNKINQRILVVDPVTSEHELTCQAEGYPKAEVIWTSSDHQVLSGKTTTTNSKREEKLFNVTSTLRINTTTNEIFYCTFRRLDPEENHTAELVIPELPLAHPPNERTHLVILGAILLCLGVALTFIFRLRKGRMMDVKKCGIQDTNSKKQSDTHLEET

T1 sequence (G7PSE7 19-238 limits assumed): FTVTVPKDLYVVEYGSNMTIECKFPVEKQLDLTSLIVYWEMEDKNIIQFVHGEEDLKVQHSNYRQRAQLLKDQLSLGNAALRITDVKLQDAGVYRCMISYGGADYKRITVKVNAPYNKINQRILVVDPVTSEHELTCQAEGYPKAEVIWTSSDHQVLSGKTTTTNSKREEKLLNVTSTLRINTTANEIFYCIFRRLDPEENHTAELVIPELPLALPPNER

For CCX559, the IC50 (cynomolgus PD-L1) was 0.21 nM and the IC50 (PD-L1) was 0.47 nM.

Reference: paper PMC10246841, “CCX559 is a potent, orally-administered small molecule PD-L1 inhibitor that induces anti-tumor immunity” (PLOS ONE, 2023)
